Data published in the Deep4Chem optical property database.
Blank lines part the entries; values can stand above or below the compound they belong to.

Test: photoluminescence quantum yield (fraction); solvent given as SMILES

photoluminescence quantum yield (in ClC(Cl)Cl): 0.16
SMILES: CCCCC1(c2ccccc2)Nc2c(-c3ccc(N(C)C)cc3)ccc(-c3ccc(N(C)C)cc3)c2N=C1c1ccccc1 (stereo not given)

photoluminescence quantum yield (in C1CCCCC1): 0.06
SMILES: COc1ccc(C2=C(c3ccc(OC)cc3)C(C)(C)c3cc(-c4ccccc4)ccc32)cc1

photoluminescence quantum yield (in ClCCl): 0.31
SMILES: CCCCC(CC)Cn1c2cc(C#N)ccc2c2cc(-c3ccc(N(c4ccccc4)c4ccccc4)cc3)c(C#N)cc21 (stereo not given)

photoluminescence quantum yield (in CC#N): 0.39 | photoluminescence quantum yield (in CCO): 0.69 | photoluminescence quantum yield (in CN(C)C=O): 0.39 | photoluminescence quantum yield (in O): 0.34
SMILES: CCOC(=O)c1ccccc1-c1c2ccc(=[N+](CC)CC)cc-2oc2cc(N(CC)CC)ccc12

photoluminescence quantum yield (in ClCCl): 0.76
SMILES: ClP1(Cl)=N[P@](Cl)(Oc2ccc3ccc4cccc5ccc2c3c45)=N[P@@](Cl)(Oc2ccc3ccc4cccc5ccc2c3c45)=N1

photoluminescence quantum yield (in ClCCl): 0.0038
SMILES: CC1=C(c2ccc(N(c3ccccc3)c3ccccc3)cc2)C(C)=[N+]2C1=C(c1c(-c3ccccn3)nc3ccccn13)c1c(C)cc(C)n1[B-]2(F)F

photoluminescence quantum yield (in ClCCl): 0.02
SMILES: COc1ccc(/C=C/c2cc(/C=C/c3ccc(N(c4ccccc4)c4ccccc4)cc3)nc(/C=C/c3ccc(N(C)C)cc3)n2)cc1

photoluminescence quantum yield (in CCO): 0.11
SMILES: CC1(C)C(/C=C/C2=C(Cl)C(=C/C=C3/N(Cc4ccc(C(=O)O)cc4)c4ccccc4C3(C)C)/CCC2)=[N+](Cc2ccc(C(=O)O)cc2)c2ccccc21

photoluminescence quantum yield (in CC#N): 0.3 | photoluminescence quantum yield (in CCOC(C)=O): 0.48 | photoluminescence quantum yield (in CN(C)C=O): 0.2 | photoluminescence quantum yield (in CS(C)=O): 0.23 | photoluminescence quantum yield (in c1ccccc1): 0.5
SMILES: CCOC(=O)CN(CC(=O)OCC)c1ccc(-c2cc(-c3ccncc3)nc(-c3ccncc3)c2)cc1

photoluminescence quantum yield (in CO): 0.59
SMILES: CC1=CC(/C=C/c2ccc(OCCCN=[N+]=[N-])cc2)=[N+]2C1=C(c1ccc(N(C)C)cc1)c1c(C)cc(C)n1[B-]2(F)F

photoluminescence quantum yield (in ClC(Cl)Cl): 0.6
SMILES: CCc1ccc(-c2ccc(-c3nnc(-c4ccc(-c5nnc(-c6ccc(-c7ccc(CC)cc7)s6)o5)cc4)o3)s2)cc1

photoluminescence quantum yield (in CCCCCC): 0.434
SMILES: CCOC(=O)c1cc(C)n2nc(-c3ccccc3)ccc12

photoluminescence quantum yield (in CC#N): 0.65 | photoluminescence quantum yield (in CCCCCC): 0.73 | photoluminescence quantum yield (in CCOC(C)=O): 0.59 | photoluminescence quantum yield (in CO): 0.59 | photoluminescence quantum yield (in ClCCl): 0.61
SMILES: CCc1c(C)c2n(c1C)[B-](F)(F)[N+]1=C(NCc3ccc(OC)cc3)C=CC1=C2C

photoluminescence quantum yield (in CC#N): 0.77 | photoluminescence quantum yield (in CS(C)=O): 0.72 | photoluminescence quantum yield (in ClC(Cl)Cl): 0.66
SMILES: C#CCn1c2ccccc2c2cc(/C=C/c3cc(C)c4n3[B-](F)(F)[N+]3=C(C)C=C(C)C3=C4c3ccc(I)cc3)ccc21

photoluminescence quantum yield (in ClC(Cl)Cl): 0.41
SMILES: COc1ccc(-c2oc3cccc4c5c(-c6ccc(OC)c(OC)c6)c(=N)oc6cccc(c2c34)c65)cc1OC

photoluminescence quantum yield (in CCCCCC): 0.31
SMILES: COc1ccc(N2c3cc(OC)ccc3N=c3cc4c(cc32)=Nc2cc(C(C)(C)C)cc(C(C)(C)C)c2O4)cc1

photoluminescence quantum yield (in c1ccccc1): 0.604
SMILES: O=c1oc2c(ccc3cc(O)ccc32)nc1-c1ccccc1

photoluminescence quantum yield (in C1CCOC1): 0.34
SMILES: C(=C\c1ccc(/C=C/c2c3ccccc3cc3ccccc23)cc1)/c1ccncc1

photoluminescence quantum yield (in OCC(O)CO): 0.026
SMILES: C[n+]1ccc(/C=C/c2ccc(N(c3ccccc3)c3ccc(/C=C/c4cc[n+](C)cn4)cc3)cc2)nc1

photoluminescence quantum yield (in ClC(Cl)Cl): 0.01
SMILES: F[B-]1(F)n2cccc2C(c2ccccc2)=C2C=CC(c3ccc(OC4=[N+]5C(=C(c6ccccc6)c6cc(Br)c(Br)n6[B-]5(F)F)C=C4Br)cc3)=[N+]21

photoluminescence quantum yield (in C1CCCCC1): 0.23
SMILES: Cc1ccc(-c2ccccc2)cc1

photoluminescence quantum yield (in C1CCOC1): 0.03
SMILES: CC(=O)c1ccc(-c2ccc3c(c2)C(=O)c2cc(-c4ccc(C(C)=O)cc4)ccc2-3)cc1

photoluminescence quantum yield (in C1CCCCC1): 0.51
SMILES: C1=C(c2ccccc2)B(c2ccccc2)Nc2c1ccc1ccccc21

More lines, now with the values behind:

SMILES: CCCCCCCCCCCn1cccc1C1=[N+]2C(=Cc3c(C)cc(C)n3[B-]2(F)F)c2ccccc21
photoluminescence quantum yield (in C1CCOC1): 0.98 | photoluminescence quantum yield (in CC#N): 0.99 | photoluminescence quantum yield (in CCCCCC): 0.99 | photoluminescence quantum yield (in CO): 0.96 | photoluminescence quantum yield (in Cc1ccccc1): 0.99 | photoluminescence quantum yield (in ClCCl): 0.99

SMILES: CN(C)c1ccc2c(-c3cc(N)ccc3C(=O)[O-])c3ccc(=[N+](C)C)cc-3oc2c1
photoluminescence quantum yield (in CCO): 0.016 | photoluminescence quantum yield (in O): 0.022

SMILES: N#Cc1cc(C#N)c(-c2cc(-n3c4ccccc4c4ccccc43)cc(-n3c4ccccc4c4ccccc43)c2)cc1-c1cc(-n2c3ccccc3c3ccccc32)cc(-n2c3ccccc3c3ccccc32)c1
photoluminescence quantum yield (in C1CCCCC1): 0.11

SMILES: c1ccc(-c2ncc3ccccn23)cc1
photoluminescence quantum yield (in ClC(Cl)Cl): 0.05

SMILES: CC1=[N+]2C(=Cc3cccn3[B-]2(F)F)C=C1
photoluminescence quantum yield (in CCCCCC): 0.96 | photoluminescence quantum yield (in CO): 1 | photoluminescence quantum yield (in ClCCl): 0.92

SMILES: COC(=O)c1cc(=O)n(C)c2cc(-c3cccc(OC)c3)sc12
photoluminescence quantum yield (in CC#N): 0.32 | photoluminescence quantum yield (in ClCCl): 0.48

SMILES: CCOc1cc2c(cc1/C=C/C1=CC(=C(C#N)C#N)CC(C)(C)C1)c1ccccc1n2CC
photoluminescence quantum yield (in C1CCOC1): 0.021 | photoluminescence quantum yield (in CC#N): 0.018 | photoluminescence quantum yield (in CCO): 0.025 | photoluminescence quantum yield (in CCOC(C)=O): 0.026 | photoluminescence quantum yield (in CN(C)C=O): 0.035 | photoluminescence quantum yield (in CS(C)=O): 0.05 | photoluminescence quantum yield (in Cc1ccccc1): 0.008 | photoluminescence quantum yield (in ClC(Cl)Cl): 0.017 | photoluminescence quantum yield (in ClCCl): 0.028

SMILES: CCn1c2cc(OC)ccc2c2c3nsnc3c3c4ccc(OC)cc4n(CC)c3c21
photoluminescence quantum yield (in CN(C)C=O): 0.49 | photoluminescence quantum yield (in Cc1ccccc1): 0.41 | photoluminescence quantum yield (in ClCCl): 0.44

SMILES: CCN(CC)c1ccc2cc3c([o+]c2c1)/C(=C/Nc1ccccc1)CCC3
photoluminescence quantum yield (in CCO): 0.18 | photoluminescence quantum yield (in ClC(Cl)Cl): 0.22 | photoluminescence quantum yield (in ClCCl): 0.31

SMILES: CCn1c2ccccc2c2cc(-c3cc(-c4ccc5c(c4)c4ccccc4n5CC)nc(N4CCCCC4)n3)ccc21
photoluminescence quantum yield (in C1CCOC1): 0.15 | photoluminescence quantum yield (in CCOC(C)=O): 0.14 | photoluminescence quantum yield (in CN(C)C=O): 0.17 | photoluminescence quantum yield (in Cc1ccccc1): 0.16 | photoluminescence quantum yield (in ClCCl): 0.15

SMILES: CC1=[N+]2C(=C(c3c4ccccc4c(-c4ccccc4)c4ccccc34)c3ccc(C)n3[B-]2(F)F)C=C1
photoluminescence quantum yield (in CC#N): 0.004 | photoluminescence quantum yield (in CCCCCC): 0.773 | photoluminescence quantum yield (in CCO): 0.006 | photoluminescence quantum yield (in CN(C)C=O): 0.004 | photoluminescence quantum yield (in Cc1ccccc1): 0.141 | photoluminescence quantum yield (in ClCCl): 0.007

SMILES: CCC1=C(C)C2=Cc3c4ccccc4c4n3[B-](c3ccc(OC)cc3)(Oc3ccccc3-4)[N+]2=C1C (stereo not given)
photoluminescence quantum yield (in CC#N): 0.67 | photoluminescence quantum yield (in CCCCCC): 0.71 | photoluminescence quantum yield (in Cc1ccccc1): 0.68 | photoluminescence quantum yield (in ClCCl): 0.7

SMILES: CC1(C)C(/C=C/C2=C(Oc3ccc(CCN=C=S)cc3)C(=C/C=C3/N(CCCS(=O)(=O)[O-])c4ccccc4C3(C)C)/CCC2)=[N+](CCCS(=O)(=O)[O-])c2ccccc21
photoluminescence quantum yield (in CO): 0.07

SMILES: COc1ccc2c3cccc4c(OC)ccc(c5cccc1c52)c43
photoluminescence quantum yield (in C1CCOC1): 0.88 | photoluminescence quantum yield (in Cc1ccccc1): 0.76 | photoluminescence quantum yield (in ClC(Cl)(Cl)Cl): 0.05 | photoluminescence quantum yield (in ClC(Cl)Cl): 0.82 | photoluminescence quantum yield (in ClCCl): 0.94 | photoluminescence quantum yield (in c1ccncc1): 0.9

SMILES: CCCCCCn1c2cc(C(=O)OCC)ccc2c2c1c1ccc(C(=O)OCC)cc1n2CCCCCC
photoluminescence quantum yield (in CCCO): 0.6

SMILES: c1ccc(-n2cccc2)cc1
photoluminescence quantum yield (in CC#N): 0.17 | photoluminescence quantum yield (in CCCCCC): 0.24

SMILES: O=C1Cc2cc3c(cc2CCCc2ccc(cc2)CCC3)CC(=O)Cc2ccc(c3nsnc23)C1
photoluminescence quantum yield (in C1CCCCC1): 0.13 | photoluminescence quantum yield (in CC#N): 0.01 | photoluminescence quantum yield (in ClC(Cl)Cl): 0.05

SMILES: F[B-]1(F)OC(c2ccccc2)=CC(c2ccccc2)=[O+]1
photoluminescence quantum yield (in CC#N): 0.8 | photoluminescence quantum yield (in ClC(Cl)(Cl)Cl): 0.15

SMILES: CCNc1ccc2c(C(F)(F)F)cc(=O)oc2c1
photoluminescence quantum yield (in C1CCC2CCCCC2C1): 0.72 | photoluminescence quantum yield (in C1CCCCC1): 0.74 | photoluminescence quantum yield (in CC1CCCCC1): 0.77 | photoluminescence quantum yield (in CC#N): 0.56 | photoluminescence quantum yield (in CC(C)=O): 0.53 | photoluminescence quantum yield (in CC(C)O): 0.54 | photoluminescence quantum yield (in CCC(C)CC): 0.75 | photoluminescence quantum yield (in CCCC(C)C): 0.77 | photoluminescence quantum yield (in CCCCCC): 0.76 | photoluminescence quantum yield (in CCCCCCO): 0.54 | photoluminescence quantum yield (in CCCCO): 0.53 | photoluminescence quantum yield (in CCO): 0.47 | photoluminescence quantum yield (in CCOC(C)=O): 0.61 | photoluminescence quantum yield (in CO): 0.46

SMILES: COc1ccccc1C1=[N+]2C(=Cc3c4c(c(-c5ccccc5OC)n3[B-]2(F)F)C2CCC4CC2)C2=C1C1CCC2CC1
photoluminescence quantum yield (in ClCCl): 0.77

SMILES: Cc1cc(C2=Cc3cccc[n+]3[B-](F)(F)O2)ccc1N(C)C
photoluminescence quantum yield (in ClC(Cl)Cl): 0.688

SMILES: O=c1oc2ccccc2cc1C#Cc1ccccc1
photoluminescence quantum yield (in CC#N): 0.88

SMILES: Oc1ccc2ccccc2c1C1Nc2cccc3cccc(c23)N1
photoluminescence quantum yield (in CC#N): 0.03 | photoluminescence quantum yield (in CO): 0.03 | photoluminescence quantum yield (in CS(C)=O): 0.14 | photoluminescence quantum yield (in Cc1ccccc1): 0.33

SMILES: Cc1ccc(C2=C3C=CC(C#Cc4ccccc4)=[N+]3[B-](F)(F)n3c(Cl)ccc32)cc1
photoluminescence quantum yield (in C1CCCCC1): 1 | photoluminescence quantum yield (in C1CCOC1): 0.84 | photoluminescence quantum yield (in C1COCCO1): 0.97 | photoluminescence quantum yield (in CCOC(C)=O): 0.83 | photoluminescence quantum yield (in CO): 0.98 | photoluminescence quantum yield (in Cc1ccccc1): 0.91 | photoluminescence quantum yield (in ClC(Cl)Cl): 0.95

SMILES: CC(C)(C)c1cc2c3cc(C(C)(C)C)c(-c4cc5cc6c7cccc8cccc(c9cc(C(C)(C)C)cc(c5cc4C(C)(C)C)c96)c87)cc3cc3c4cccc5cccc(c(c1)c23)c54
photoluminescence quantum yield (in CC1CCCCC1): 0.64

SMILES: CC(=O)[B-]1(C(C)=O)OC(c2ccccc2)=CC(c2ccccc2)=[O+]1
photoluminescence quantum yield (in CC#N): 0.8 | photoluminescence quantum yield (in ClC(Cl)(Cl)Cl): 0.9

SMILES: CC(C)c1cc(C(C)C)c(B2c3ccccc3Oc3cc(N4c5ccccc5C5(c6ccccc6Oc6ccccc65)c5ccccc54)ccc32)c(C(C)C)c1
photoluminescence quantum yield (in Cc1ccccc1): 0.56

SMILES: Cc1cc(C)c(B2c3cc(C)ccc3N3c4ccc(C)cc4B(c4c(C)cc(C)cc4C)c4cc(C)cc2c43)c(C)c1
photoluminescence quantum yield (in Cc1ccccc1-c1cccc(Oc2cc3c4c(c2)Oc2cc(-c5ccccc5C)ccc2B4c2ccc(-c4ccccc4C)cc2O3)c1): 0.889 | photoluminescence quantum yield (in ClCCl): 0.79

SMILES: N#Cc1cc2ccc(O)cc2oc1=N
photoluminescence quantum yield (in C1CCOC1): 0.0262 | photoluminescence quantum yield (in CC#N): 0.0086 | photoluminescence quantum yield (in CCOC(C)=O): 0.072 | photoluminescence quantum yield (in CS(C)=O): 0.0022 | photoluminescence quantum yield (in ClC(Cl)Cl): 0.0342
